We go through 33 compounds from patent US9963434B2, “N-arylmethyl sulfonamide negative modulators of NR2A” (LUC THERAPEUTICS, priority 2013, dated 2018).

The test concerns the target NR1/NR2A (Homo sapiens (Human), UniProt Q05586+Q12879). Put plainly: FDSS Ca2+ influx inhibition assay in HEK293 cells expressing NR1/NR2A. The format is cell-based. The settings on record: 3 μM glutamate, 3 μM glycine, 1 mM Ca2+. The essentials: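 Fluo-8-loaded HEK293 NR1/NR2A cells preincubated 10 min with compound at 10 μM final (0.1% DMSO) in Ca2+/Mg2+-free HBSS with 20 mM HEPES. Stimulated with 3 μM glutamate, 3 μM glycine, 1 mM Ca2+; FDSS recording for 3 min, end/baseline fluorescence ratio compared with MK801.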

[1] abbreviates: inhibition relative to MK801, read-out: NR2A IC50.

The structures appear in SMILES notation. Read-outs that look alike come from different tables or passages of the source. A value given as a limit tells only on which side of the number the result lay.

NR1/NR2A, sequence (Q12879 23-1464, other chains not shown): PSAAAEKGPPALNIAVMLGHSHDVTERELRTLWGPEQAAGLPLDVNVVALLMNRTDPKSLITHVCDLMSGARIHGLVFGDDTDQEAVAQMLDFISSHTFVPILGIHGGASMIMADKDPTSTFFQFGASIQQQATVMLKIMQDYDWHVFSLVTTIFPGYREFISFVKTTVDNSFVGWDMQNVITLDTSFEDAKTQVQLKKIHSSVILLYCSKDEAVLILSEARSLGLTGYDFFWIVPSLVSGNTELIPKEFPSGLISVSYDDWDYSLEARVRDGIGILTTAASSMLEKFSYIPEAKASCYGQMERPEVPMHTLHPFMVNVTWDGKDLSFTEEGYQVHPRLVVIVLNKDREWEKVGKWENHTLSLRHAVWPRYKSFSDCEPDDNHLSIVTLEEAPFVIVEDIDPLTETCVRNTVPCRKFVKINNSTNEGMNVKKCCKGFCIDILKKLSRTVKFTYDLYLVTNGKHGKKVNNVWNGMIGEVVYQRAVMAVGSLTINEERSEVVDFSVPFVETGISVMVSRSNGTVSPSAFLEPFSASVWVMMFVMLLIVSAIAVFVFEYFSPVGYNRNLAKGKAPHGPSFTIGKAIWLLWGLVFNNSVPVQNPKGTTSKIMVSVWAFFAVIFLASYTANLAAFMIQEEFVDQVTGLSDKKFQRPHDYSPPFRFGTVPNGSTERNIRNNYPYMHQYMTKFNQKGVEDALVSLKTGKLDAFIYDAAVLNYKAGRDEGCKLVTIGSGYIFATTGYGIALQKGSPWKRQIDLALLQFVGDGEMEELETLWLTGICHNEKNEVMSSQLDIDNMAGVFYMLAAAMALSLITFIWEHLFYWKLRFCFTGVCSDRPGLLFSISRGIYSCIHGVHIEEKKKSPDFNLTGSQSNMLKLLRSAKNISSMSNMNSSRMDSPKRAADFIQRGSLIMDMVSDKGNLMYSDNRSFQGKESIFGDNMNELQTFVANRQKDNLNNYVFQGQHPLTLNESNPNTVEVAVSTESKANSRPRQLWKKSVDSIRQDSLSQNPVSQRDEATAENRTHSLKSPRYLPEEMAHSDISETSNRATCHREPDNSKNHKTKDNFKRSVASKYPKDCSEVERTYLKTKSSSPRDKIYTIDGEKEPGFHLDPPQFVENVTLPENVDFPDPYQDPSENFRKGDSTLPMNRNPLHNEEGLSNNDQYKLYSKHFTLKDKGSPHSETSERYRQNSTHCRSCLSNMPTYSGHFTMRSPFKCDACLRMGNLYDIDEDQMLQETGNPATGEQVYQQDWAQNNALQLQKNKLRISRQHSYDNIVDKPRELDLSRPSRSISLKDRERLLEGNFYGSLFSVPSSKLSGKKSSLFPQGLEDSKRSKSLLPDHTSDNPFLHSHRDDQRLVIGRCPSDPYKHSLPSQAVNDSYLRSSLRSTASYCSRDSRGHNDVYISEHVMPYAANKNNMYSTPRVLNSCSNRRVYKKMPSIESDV

As for `CC(NC(=O)c1ccc(CNS(=O)(=O)c2ccc(F)c(Cl)c2)nn1)c1ccco1` (stereo not shown) [6-(3-chloro-4-fluorobenzenesulfon-amidomethyl)-N-[1-(furan-2-yl)ethyl]pyridazine-3-carboxamide], the IC50 is, setting by setting: under setting [1], 10 µM; (read-out: Binned Activity) > 10 µM.

For `Cn1cnc(CNC(=O)c2ccc(CNS(=O)(=O)c3ccc(F)c(Cl)c3)cn2)c1` [5-(3-chloro-4-fluorobenzenesulfon-amidomethyl)-N-[(1-methyl-1H-imidazol-4-yl)methyl]pyridine-2-carboxamide], the IC50 was 10 µM under setting [1] and > 10 µM (read-out: Binned Activity).

Regarding `Cc1cnc(CNC(=O)c2ccc(CNS(=O)(=O)c3ccc(F)c(Cl)c3)nn2)cn1` [6-(3-chloro-4-fluorobenzenesulfon-amidomethyl)-N-[(5-methylpyrazin-2-yl)methyl]pyridazine-3-carboxamide], the IC50 is 10 µM under setting [1] and > 10 µM (read-out: Binned Activity).

Take `O=C(NC1CCS(=O)(=O)C1)c1cnc(CNS(=O)(=O)c2ccc(F)c(Cl)c2)cn1` (stereo not shown) [5-(3-chloro-4-fluorobenzenesulfon-amidomethyl)-N-(1,1-dioxo-1λ^6-thiolan-3-yl)pyrazine-2-carboxamide]: the IC50 under setting [1] was 10 µM and the IC50 (read-out: Binned Activity) was > 10 µM.

`Cn1cnc(CNC(=O)c2ccc(CNS(=O)(=O)c3ccc(F)c(Cl)c3)nc2)c1` [6-(3-chloro-4-fluorobenzenesulfon-amidomethyl)-N-[(1-methyl-1H-imidazol-4-yl)methyl]pyridine-3-carboxamide]: the IC50 is 10 µM under setting [1] and > 10 µM (read-out: Binned Activity).

Regarding `Cc1ccc(CNC(=O)c2cnc(CNS(=O)(=O)c3ccc(F)c(Cl)c3)cn2)s1` [5-(3-chloro-4-fluorobenzenesulfon-amidomethyl)-N-[(5-methylthiophen-2-yl)methyl]pyrazine-2-carboxamide], the IC50 is 10 µM under setting [1] and > 10 µM (read-out: Binned Activity).

Take `Cc1ncsc1CNC(=O)c1ccc(CNS(=O)(=O)c2ccc(F)c(Cl)c2)nc1` [6-(3-chloro-4-fluorobenzenesulfon-amidomethyl)-N-[(4-methyl-1,3-thiazol-5-yl)methyl]pyridine-3-carboxamide]: the IC50 was 10 µM under setting [1] and > 10 µM (read-out: Binned Activity).

Consider `Cc1ncc(CNC(=O)c2cnc(CNS(=O)(=O)c3ccccc3F)c(C)n2)s1` [5-(2-fluorobenzenesulfon-amidomethyl)-6-methyl-N-[(2-methyl-1,3-thiazol-5-yl)methyl]pyrazine-2-carboxamide], for which the IC50 is, setting by setting: under setting [1], 10 µM; (read-out: Binned Activity) > 10 µM.

With `O=C(NCc1cnccn1)c1ccc(CNS(=O)(=O)c2ccc(F)c(Cl)c2)nc1` [6-(3-chloro-4-fluorobenzenesulfon-amidomethyl)-N-(pyrazin-2-ylmethyl)pyridine-3-carboxamide], the IC50 (read-out: Binned Activity) was in the range of 0.1 to 1 µM.

On to `O=C(NCc1ccncc1)c1ccc(CNS(=O)(=O)c2ccc(F)c(Cl)c2)cn1` [5-(3-chloro-4-fluorobenzenesulfon-amidomethyl)-N-(pyridin-4-ylmethyl)pyridine-2-carboxamide], for which the IC50 reads like this: under setting [1], 10 µM; (read-out: Binned Activity) > 10 µM.

`Cc1nnc(CNC(=O)c2ccc(CNS(=O)(=O)c3ccc(F)c(Cl)c3)cn2)o1` [5-(3-chloro-4-fluorobenzenesulfon-amidomethyl)-N-[(5-methyl-1,3,4-oxadiazol-2-yl)methyl]pyridine-2-carboxamide]: the IC50 (read-out: Binned Activity) is 1 to 10 µM.

Consider `O=C(NCc1ccncn1)c1ccc(CNS(=O)(=O)c2ccc(F)c(Cl)c2)nn1` [6-(3-chloro-4-fluorobenzenesulfon-amidomethyl)-N-(pyrimidin-4-ylmethyl)pyridazine-3-carboxamide], for which the IC50 is 10 µM under setting [1] and > 10 µM (read-out: Binned Activity).

As to `Cc1ccc(CNC(=O)c2ccc(CNS(=O)(=O)c3ccc(F)c(Cl)c3)nc2)n1C` [6-(3-chloro-4-fluorobenzenesulfon-amidomethyl)-N-[(1,5-dimethyl-1H-pyrrol-2-yl)methyl]pyridine-3-carboxamide], the IC50 is, setting by setting: under setting [1], 10 µM; (read-out: Binned Activity) > 10 µM.

On to `Cc1ncc(CNC(=O)c2ccc(CNS(=O)(=O)c3ccc(Cl)nc3)cn2)s1` [5-(6-chloropyridine-3-sulfonamidomethyl)-N-[(2-methyl-1,3-thiazol-5-yl)methyl]pyridine-2-carboxamide], for which the IC50 was 10 µM under setting [1] and > 10 µM (read-out: Binned Activity).

For the compound `Cc1ncc(CNC(=O)c2ccc(CNC(=O)c3cc(F)cc(F)c3)cn2)s1` [5-{[(3,5-difluorophenyl)form-amido]methyl}-N-[(2-methyl-1,3-thiazol-5-yl)methyl]pyridine-2-carboxamide], the IC50 was 10 µM under setting [1] and > 10 µM (read-out: Binned Activity).

On to `CN(C)CCCNC(=O)c1ccc(CNS(=O)(=O)c2ccc(F)c(Cl)c2)nc1` [6-(3-chloro-4-fluorobenzenesulfon-amidomethyl)-N-[3-(dimethylamino)propyl] pyridine-3-carboxamide], for which the IC50 under setting [1] was 10 µM and the IC50 (read-out: Binned Activity) was > 10 µM.

On to `Cc1ncc(CNC(=O)c2cnc(CNS(=O)(=O)c3cc(Cl)cc(Cl)c3)cn2)s1` [5-(3,5-dichlorobenzenesulfon-amidomethyl)-N-[(2-methyl-1,3-thiazol-5-yl)methyl]pyrazine-2-carboxamide], for which the IC50 by setting is: under setting [1], 10 µM; (read-out: Binned Activity) > 10 µM.

Take `O=C(NCc1ccsc1)c1ccc(CNS(=O)(=O)c2ccc(F)c(Cl)c2)cn1` [5-(3-chloro-4-fluorobenzenesulfon-amidomethyl)-N-(thiophen-3-ylmethyl)pyridine-2-carboxamide]: the IC50 is 10 µM under setting [1] and > 10 µM (read-out: Binned Activity).

For `Cc1ccc(CNC(=O)c2ccc(CNS(=O)(=O)c3ccc(F)c(Cl)c3)nc2)s1` [6-(3-chloro-4-fluorobenzenesulfon-amidomethyl)-N-[(5-methylthiophen-2-yl)methyl]pyridine-3-carboxamide], the IC50 is, setting by setting: under setting [1], 10 µM; (read-out: Binned Activity) > 10 µM.

`Cc1ncc(CNC(=O)c2ccc(CNS(=O)(=O)c3csc4ccccc34)cn2)s1` [5-(1-benzothiophene-3-sulfonamidomethyl)-N-[(2-methyl-1,3-thiazol-5-yl)methyl]pyridine-2-carboxamide]: the IC50 under setting [1] is 10 µM and the IC50 (read-out: Binned Activity) was > 10 µM.

In the case of `Cn1nccc1CNC(=O)c1cnc(CNS(=O)(=O)c2ccc(F)c(Cl)c2)cn1` [5-(3-chloro-4-fluorobenzenesulfon-amidomethyl)-N-[(1-methyl-1H-pyrazol-5-yl)methyl]pyrazine-2-carboxamide], the IC50 under setting [1] was found to be 10 µM and the IC50 (read-out: Binned Activity) was > 10 µM.

For `O=C(NCc1cncc(F)c1)c1cnc(CNS(=O)(=O)c2ccc(F)c(Cl)c2)cn1` [5-(3-chloro-4-fluorobenzenesulfon-amidomethyl)-N-[(5-fluoropyridin-3-yl)methyl]pyrazine-2-carboxamide], the IC50 (read-out: Binned Activity) fell in the range of 1 to 10 µM.

On to `Cc1ccncc1CNC(=O)c1ccc(CNS(=O)(=O)c2ccc(F)c(Cl)c2)nc1` [6-(3-chloro-4-fluorobenzenesulfon-amidomethyl)-N-[(4-methylpyridin-3-yl)methyl]pyridine-3-carboxamide], for which, under “read-out: Binned Activity”, the IC50 lay in the range of 1 to 10 µM.

As to `Cc1ncc(CNC(=O)c2ccc(CNC(=O)c3cccc(F)c3)cn2)s1` [5-{[(3-fluorophenyl)formamido]methyl}-N-[(2-methyl-1,3-thiazol-5-yl)methyl]pyridine-2-carboxamide], the IC50 was 10 µM under setting [1] and > 10 µM (read-out: Binned Activity).

Regarding `Cc1ncc(CNC(=O)c2ccc(CNS(=O)(=O)c3ccc(-c4csnn4)cc3)cn2)s1` [N-[(2-methyl-1,3-thiazol-5-yl)methyl]-5-[4-(1,2,3-thiadiazol-4-yl)benzenesulfonamido-methyl]pyridine-2-carboxamide], the IC50 under setting [1] was 10 µM and the IC50 (read-out: Binned Activity) was > 10 µM.

As to `Cc1ncc(CNC(=O)c2cnc(CNS(=O)(=O)c3ccc(F)cc3)c(C)n2)s1` [5-(4-fluorobenzenesulfon-amidomethyl)-6-methyl-N-[(2-methyl-1,3-thiazol-5-yl)methyl]pyrazine-2-carboxamide], under “read-out: Binned Activity”, the IC50 was in the range of 0.1 to 1 µM.

On to `O=C(NCc1cncnc1)c1ccc(CNS(=O)(=O)c2ccc(F)c(Cl)c2)nc1` [6-(3-chloro-4-fluorobenzenesulfon-amidomethyl)-N-(pyrimidin-5-ylmethyl)pyridine-3-carboxamide], for which the IC50 is, setting by setting: under setting [1], 10 µM; (read-out: Binned Activity) > 10 µM.

With `COc1cc(CNC(=O)c2cnc(CNS(=O)(=O)c3ccc(F)c(Cl)c3)cn2)ccn1` [5-(3-chloro-4-fluorobenzenesulfon-amidomethyl)-N-[(2-methoxypyridin-4-yl)methyl]pyrazine-2-carboxamide], the IC50 (read-out: Binned Activity) fell in the range of 0.1 to 1 µM.

As for `Cc1ncc(CNC(=O)c2ccc(CNS(=O)(=O)c3cccc(Cl)c3)cn2)s1` [5-(3-chlorobenzenesulfon-amidomethyl)-N-[(2-methyl-1,3-thiazol-5-yl)methyl]pyridine-2-carboxamide], under “read-out: Binned Activity”, the IC50 lay within 1 to 10 µM.

On to `O=C(NCc1ccno1)c1ccc(CNS(=O)(=O)c2ccc(F)c(Cl)c2)cn1` [5-(3-chloro-4-fluorobenzenesulfon-amidomethyl)-N-(1,2-oxazol-5-ylmethyl)pyridine-2-carboxamide], for which, for the setting “read-out: Binned Activity”, the IC50 was in the range of 1 to 10 µM.

On to `Cc1ncc(CNC(=O)c2ccc(CNS(=O)(=O)c3ccc(F)cc3)cn2)s1` [5-(4-fluorobenzenesulfon-amidomethyl)-N-[(2-methyl-1,3-thiazol-5-yl)methyl]pyridine-2-carboxamide], for which, under “read-out: Binned Activity”, the IC50 fell in the range of 1 to 10 µM.

Regarding `CC(NC(=O)c1ccc(CNS(=O)(=O)c2ccc(F)c(Cl)c2)cn1)c1cccs1` (stereo not shown) [5-(3-chloro-4-fluorobenzenesulfon-amidomethyl)-N-[1-(thiophen-2-yl)ethyl]pyridine-2-carboxamide], the IC50 (read-out: Binned Activity) was 1 to 10 µM.

Turning to `Cc1ncc(CNC(=O)c2cnc(CNS(=O)(=O)c3cccc(Cl)c3)c(C)n2)s1` [5-(3-chlorobenzenesulfon-midomethyl)-6-methyl-N-[(2-methyl-1,3-thiazol-5-yl)methyl]pyrazine-2-carboxamide], under “read-out: Binned Activity”, the IC50 was < 0.1 µM.
